Assay results from patent US20100144599A1, “VEGF PATHWAY BLOCKADE” (Bristol-Myers Squibb Company, priority 2007, published 2010).

Key:
[1] = Bhuyan et al., Cancer Res. 42 (1982); cited from earlier work
[2] = Toxicity study in the Colo205 colon carcinoma model; assay type: in vivo; details: sunitinib 60 mg/kg/day, sorafenib 80 mg/kg/day
Description: An additional study was performed using the Colo205 colon carcinoma model to test the toxicity of sunitinib (60 mg/kg/day), sorafenib (80 mg/kg/day), and Comp-I (30 mg/kg/day) treatment.

[3] = system: Colo205 colon carcinoma; assay: Tumor inhibition, Colo-205 colon carcinoma xenogeneic s.c. model; assay type: in vivo, Human; details: 60 mg/kg, treatment started at average tumor size 200 mm^3, Kaplan Meier (FIG. 3)
Description: (§1) The anti-tumor effect of Comp-I was compared to bevacizumab treatment in a model of colon (Colo205 colon carcinoma) and brain (U87 glioblastoma) tumors.
The anti-tumor effect of Comp-I was also compared to treatment with sunitinib and sorafenib in a Colo205 colon carcinoma model. FIG. 3 depicts a Kaplan Meier Survival analysis on the length of time for individual tumors to reach a given size. […] All three compounds were administered at 60 mg/kg.

[4] = system: U87 glioblastoma; assay: Tumor inhibition, U87 glioblastoma xenograft model; assay type: in vivo, Human; details: nude male mice, 30 mg/kg Comp-I or 5 mg/kg bevacizumab bi-weekly, 20 days (FIG. 2)
Description: The effect of Comp-I and bevacizumab treatment was assessed in a U87 xenograft model of human glioblastoma (FIG. 2). Briefly, nude male mice, 6-7 weeks of age, were implanted with U87 glioblastoma tumor cells (5×10^6) subcutaneously on the right flank. Tumor growth was monitored 2 times per week using caliper measurement. Drug treatment was initiated after the tumors reached a size of at least 50 mm^3.Tumor growth inhibition over vehicle was greater in Comp-I (56%) as compared to bevacizumab (35%) treatment.
as §1

Row | Molecule | potency in vitro relative to commonly used anti-cancer drugs, such as doxorubicin, methotrexate and vincristine [1] | mice survived [2] | tumors remaining under 500 mm^3 [3] | Tumor growth inhibition over vehicle [4]
1 | COc1c(O)c2c(c3cc(C(=O)N4CCc5c4c(O)c(OC)c4[nH]c(C(=O)N6CC7CC78C6=CC(=O)c6[nH]cc(C)c68)cc54)[nH]c13)CCN2C(N)=O (stereo not drawn) [CC-1065] | about 1000 fold |  |  | 
2 | CCN(CC)CCNC(=O)c1c(C)[nH]c(/C=C2\C(=O)Nc3ccc(F)cc32)c1C [sunitinib] |  | 12/15 | around 60% | 
3 | CNC(=O)c1cc(Oc2ccc(NC(=O)Nc3ccc(Cl)c(C(F)(F)F)c3)cc2)ccn1 [sorafenib] |  | 14/15 | around 60% | 
4 | bevacizumab |  |  |  | 35%
